The text below walks through data of PubChem BioAssay (NCI).

Common to all, as to experiment: DTP human tumour cell line panel, 48 h
In assay [1] the test system is SF-295 CNS.
Assay [2] relates to OVCAR-8 ovarian.
Assay [3] concerns EKVX NSCLC.
For assay [4], the system named is KM20L2 colon.
In assay [5] the test system is ACHN renal.
Assay [6] concerns CAKI-1 renal.
The subject of assay [7] is TK-10 renal.
For assay [8], the system named is IGROV1 ovarian.
Assay [9] concerns DMS 114 small cell lung.
Assay [10] concerns DMS 273 small cell lung.
In assay [11] the test system is SNB-78 CNS.
The subject of assay [12] is DLD-1 colon.
For assay [13], the system named is MDA-MB-435.

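Growth conditions: 96-well plates. Treatment: test compound, 48 hours, 5 concentrations. Analysis: linear interpolation between bracketing concentrations; unreached endpoints set to highest concentration. TGI marks complete inhibition of growth.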

By TGI is commonly meant the concentration at which net growth stops. A lower TGI goes with greater sensitivity of the cells. As for `O=C(N/N=C/c1cc(Br)cc(Br)c1[O-])c1ccccc1O.O=C(N/N=C/c1cc(Br)cc(Br)c1[O-])c1ccccc1O.[Fe+2]`, the TGI came out at 15.8 µM in assay [1]; 36.1 µM in [2]; 50.3 µM in assay [3]; 17.4 µM in assay [4]; 21.1 µM in assay [5]; 34.5 µM in assay [6]. Further, the TGI in [7] was found to be 28.5 µM; in [8], 41.4 µM.

As for `COc1c(Br)cc(CC(N)=O)c(O)c1Br`, the TGI in assay [1], in assay [2], in [3], in assay [4], in assay [9] and in [5] was above 100 µM in each case. Further, the TGI in [10], in assay [6], in assay [7], in [11], in [12] and in assay [8] was above 100 µM throughout.

`O=C(CC1=NCCN1)c1ccccc1`: the TGI in assay [1], in assay [2], in assay [3], in assay [4], in assay [9] and in assay [10] was above 750 µM throughout. In addition, the TGI in assay [6], in [11], in [12] and in assay [8] was above 750 µM each time.

`NC(N)=Nc1ncccc1[N+](=O)[O-]`: the total growth inhibition concentration (TGI) in [1] was above 100 µM; in assay [2], above 100 µM; in [4], 70.2 µM; in assay [9], 30.5 µM; in [10], above 100 µM; in assay [6] it was above 100 µM. For the same molecule, the TGI in assay [11], in assay [12] and in assay [8] was above 100 µM each time.

As to `COC1(OC)CCCCC2c3cccc(OC(C)=O)c3C21OC(C)=O` (stereo not drawn), the TGI in [1], in assay [2], in [3], in [9], in assay [5] and in [10] was above 100 µM in each case. Also, the TGI in [7], in [11], in [12] and in assay [8] was above 100 µM each time.

As to `O=C(Nc1cccc(O)c1)C(=O)C(C(=O)c1ccccc1F)C1OC(=O)c2ccccc21` (stereo not drawn), the TGI is above 100 µM in assay [1]; 30.5 µM in assay [2]; above 100 µM in [3]; 58.9 µM in assay [4]; 40.7 µM in assay [9]; above 100 µM in assay [5]. Further, the TGI in assay [10] was 98.1 µM; in assay [6], 94 µM; in assay [7] it was above 100 µM; in [11], 92.9 µM; in [12] it was above 100 µM; in assay [8] it was above 100 µM.

In the case of `O=C(O)C(CO)NC(=O)n1c2ccccc2c2ccccc21` (stereo not drawn), the TGI in assay [1], in [2], in assay [3], in [9], in assay [5] and in assay [10] was above 100 µM each time. The TGI in assay [6], in assay [7], in assay [12] and in assay [8] was above 100 µM in each case.

As to `O=C(O)C(CS)N=c1c2ccccc2n(O)c2ccccc12` (stereo not drawn), the TGI in assay [1], in [2], in [3], in [4], in assay [9] and in assay [5] was above 100 µM throughout. Moreover, the TGI in assay [10], in [6], in [7], in [11], in assay [12] and in assay [8] was above 100 µM throughout.

Regarding `C=CCOCCCCC(C(C)=O)C(=O)OC` (stereo not drawn), the TGI in assay [1], in assay [2], in assay [4], in [5], in [6] and in [7] was above 100 µM each time. Further, the TGI in assay [11], in assay [12] and in assay [8] was above 100 µM in each case.

In the case of `Cc1c2ncccc2cc2oc3ccccc3c(=O)c12`, the TGI in [13], in assay [1], in [2], in assay [3], in assay [5] and in assay [6] was above 100 µM throughout. Besides, the TGI in [7] and in [8] was above 100 µM each time.

As for `c1ccc2c3c(c(N4CCOCC4)nc2c1)CCCC3`, the TGI in [13] is above 100 µM; in [1] it was above 100 µM; in [2] it was above 100 µM; in assay [3] it was 63.8 µM; in [5], above 100 µM; in assay [6] it was above 100 µM. The TGI in [7] and in [8] was above 100 µM each time.
